From ChEMBL document CHEMBL2380196, “New anticancer active and selective phenylene-bisbenzothiazoles: synthesis, antiproliferative evaluation and DNA binding” (Eur J Med Chem, 2013)
Calls of active or inactive are those of the source. No cut-off for these calls is given here.

What was measured:
SK-BR-3 [1] = assay: Cell cycle arrest in human SKBR3 cells assessed as accumulation in G1 phase at 10 uM after 48 hrs using propidium iodide staining by flow cytometry relative to control; format: functional
SK-BR-3 [2] = assay: Cell cycle arrest in human SKBR3 cells assessed as accumulation in sub-G1 phase at 5 uM after 48 hrs using propidium iodide staining by flow cytometry relative to control; format: functional
DNA = assay: Binding affinity to calf thymus DNA at 50 uM by Circular dichroism spectra analysis; format: nucleic-acid assay; settings: Bos taurus
SK-BR-3 [3] = assay: Cell cycle arrest in human SKBR3 cells assessed as accumulation in sub-G1 phase at 10 uM after 48 hrs using propidium iodide staining by flow cytometry relative to control; format: functional
MIA PaCa-2 [4] = assay: Cell cycle arrest in human MIAPaCa2 cells assessed as accumulation in G1 phase at 5 uM after 24 hrs using propidium iodide staining by flow cytometry relative to control; format: functional
MIA PaCa-2 [5] = assay: Cell cycle arrest in human MIAPaCa2 cells assessed as accumulation in G2/M phase at 10 uM after 24 hrs using propidium iodide staining by flow cytometry relative to control; format: functional
HeLa [6] = assay: Cell cycle arrest in human HeLa cells assessed as accumulation in sub-G1 phase at 10 uM after 48 hrs using propidium iodide staining by flow cytometry relative to control; format: functional
MIA PaCa-2 [7] = assay: Cell cycle arrest in human MIAPaCa2 cells assessed as accumulation in sub-G1 phase at 10 uM after 24 hrs using propidium iodide staining by flow cytometry relative to control; format: functional
SW-620 [8] = assay: Antiproliferative activity against human SW620 cells after 72 hrs by MTT assay; format: functional, cell-based; settings: SW-620, 72 h; for CC50: read-out: LC50 (the source's name)
SK-BR-3 [9] = assay: Cell cycle arrest in human SKBR3 cells assessed as accumulation in G1 phase at 10 uM after 24 hrs using propidium iodide staining by flow cytometry relative to control; format: functional
SK-BR-3 [10] = assay: Cell cycle arrest in human SKBR3 cells assessed as accumulation in sub-G1 phase at 5 uM after 24 hrs using propidium iodide staining by flow cytometry relative to control; format: functional
MIA PaCa-2 [11] = assay: Cell cycle arrest in human MIAPaCa2 cells assessed as accumulation in sub-G1 phase at 5 uM after 24 hrs using propidium iodide staining by flow cytometry relative to control; format: functional
SK-BR-3 [12] = assay: Induction of apoptosis in human SKBR3 cells at 10 uM after 24 hrs using propidium iodide/Annexin-V staining by flow cytometry relative to control; format: functional
MCF7 = assay: Antiproliferative activity against human MCF7 cells after 72 hrs by MTT assay; format: functional, cell-based; settings: MCF7, 72 h; for CC50: read-out: LC50 (the source's name)
SK-BR-3 [13] = assay: Cell cycle arrest in human SKBR3 cells assessed as accumulation in G2/M phase at 5 uM after 48 hrs using propidium iodide staining by flow cytometry relative to control; format: functional
MIA PaCa-2 [14] = assay: Induction of apoptosis in human MIAPaCa2 cells at 10 uM after 24 hrs using propidium iodide/Annexin-V staining by flow cytometry relative to control; format: functional
SK-BR-3 [15] = assay: Cell cycle arrest in human SKBR3 cells assessed as accumulation in S phase at 5 uM after 48 hrs using propidium iodide staining by flow cytometry relative to control; format: functional
SK-BR-3 [16] = assay: Cell cycle arrest in human SKBR3 cells assessed as accumulation in S phase at 5 uM after 24 hrs using propidium iodide staining by flow cytometry relative to control; format: functional
MIA PaCa-2 [17] = assay: Cell cycle arrest in human MIAPaCa2 cells assessed as accumulation in S phase at 5 uM after 24 hrs using propidium iodide staining by flow cytometry relative to control; format: functional
HeLa [18] = assay: Cell cycle arrest in human HeLa cells assessed as accumulation in G2/M phase at 10 uM after 48 hrs using propidium iodide staining by flow cytometry relative to control; format: functional
SK-BR-3 [19] = assay: Cell cycle arrest in human SKBR3 cells assessed as accumulation in G2/M phase at 5 uM after 24 hrs using propidium iodide staining by flow cytometry relative to control; format: functional
HeLa [20] = assay: Cell cycle arrest in human HeLa cells assessed as accumulation in S phase after 24 hrs using propidium iodide staining by flow cytometry; format: functional, cell-based
SW-620 [21] = assay: Cell cycle arrest in human SW620 cells assessed as accumulation in sub-G1 phase at 10 uM after 48 hrs using propidium iodide staining by flow cytometry relative to control; format: functional
SW-620 [22] = assay: Cell cycle arrest in human SW620 cells assessed as accumulation in G1 phase at 5 uM after 24 hrs using propidium iodide staining by flow cytometry relative to control; format: functional
SW-620 [23] = assay: Cell cycle arrest in human SW620 cells assessed as accumulation in G1 phase at 5 uM after 48 hrs using propidium iodide staining by flow cytometry relative to control; format: functional
SW-620 [24] = assay: Cell cycle arrest in human SW620 cells assessed as accumulation in G2/M phase at 10 uM after 24 hrs using propidium iodide staining by flow cytometry relative to control; format: functional
SW-620 [25] = assay: Cell cycle arrest in human SW620 cells assessed as accumulation in sub-G1 phase at 5 uM after 24 hrs using propidium iodide staining by flow cytometry relative to control; format: functional
SW-620 [26] = assay: Induction of apoptosis in human SW620 cells at 10 uM after 48 hrs using propidium iodide/Annexin-V staining by flow cytometry relative to control; format: functional
SW-620 [27] = assay: Cell cycle arrest in human SW620 cells assessed as accumulation in S phase at 5 uM after 48 hrs using propidium iodide staining by flow cytometry relative to control; format: functional
SW-620 [28] = assay: Cell cycle arrest in human SW620 cells assessed as accumulation in S phase at 10 uM after 48 hrs using propidium iodide staining by flow cytometry relative to control; format: functional
SW-620 [29] = assay: Cell cycle arrest in human SW620 cells assessed as accumulation in S phase at 10 uM after 24 hrs using propidium iodide staining by flow cytometry relative to control; format: functional

SMILES	Activity (SK-BR-3 [1]) [%]	Activity (SK-BR-3 [2]) [%]	Activity (DNA)	Activity (SK-BR-3 [3]) [%]	Activity (MIA PaCa-2 [4]) [%]	Activity (MIA PaCa-2 [5]) [%]	Activity (HeLa [6]) [%]	Activity (MIA PaCa-2 [7]) [%]	IC50 (SW-620 [8]) [µM]	CC50 (SW-620 [8]) [µM]	Activity (SK-BR-3 [9]) [%]	Activity (SK-BR-3 [10]) [%]	Activity (MIA PaCa-2 [11]) [%]	Activity (SK-BR-3 [12]) [%]	IC50 (MCF7) [µM]	CC50 (MCF7) [µM]	Activity (SK-BR-3 [13]) [%]	Activity (SK-BR-3 [15]) [%]	Activity (SK-BR-3 [16]) [%]	Activity (MIA PaCa-2 [17]) [%]	further results
Cl.Cl.c1cc2nc(-c3ccc(-c4nc5ccc(C6=NCCN6)cc5s4)cc3)sc2cc1C1=NCCN1	41.3	27.5	inactive	32.1	35.2	19	23.2	33.1	7.65	> 100	50.9	15.8	34.4	5	3.07	> 100	13.8	32.6	33.5	55	Activity (MIA PaCa-2 [14]): 5%; Activity (HeLa [18]): 14.5%; Activity (SK-BR-3 [19]): 11.6%
Cl.Cl.c1cc(-c2nc3ccc(C4=NCCN4)cc3s2)cc(-c2nc3ccc(C4=NCCN4)cc3s2)c1	22.1	21.6	Active	12.5	60.2	21.3	15.5	8.1	0.47	6.19	28.7	33.3	17.7	8	> 100	5.3	21.1	44	58.9	33.6	Activity (HeLa [20]): Dose-dependent effect; Activity (SW-620 [21]): 13.6%; Activity (SW-620 [22]): 45.3%; Activity (SW-620 [23]): 36.7%; Activity (SW-620 [24]): 23.9%; Activity (SW-620 [25]): 13.5%; Activity (SW-620 [26]): 95%; Activity (SW-620 [27]): 48.6%; Activity (SW-620 [28]): 69.6%; Activity (HeLa [18]): 13.2%; Activity (SW-620 [29]): 65.6%; Activity (SK-BR-3 [19]): 4.2%
